What was measured:
[1] = test system: B. subtilis 168; assay: fitness (endpoint OD595 vs no drug) (fraction); higher = more growth
In short: (§1)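 Plates with 384 wells were inoculated at OD595 0.01 using 30 µl of TSB, LB Lennox or CY, or 55 µl for S. pneumoniae. Incubation was at 37 °C, with OD595 measured every 30 min for 14 h. Fitness is the stationary-phase transition optical density over the robust mean of no-drug control wells, after first-reading background subtraction; it is capped at 1.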

[2] = test system: S. pneumoniae D39V; assay: as above
In short: as §1

C[C@H]1COc2c(N3CCN(C)CC3)c(F)cc3c(=O)c(C(=O)O)cn1c23 [Levofloxacin] + CC1=C(C(=O)O)N2C(=O)[C@@H](NC(=O)[C@H](N)c3ccccc3)[C@H]2SC1 [Cephalexin]
fitness, one replicate
Conditions | first compound 0.001 µg/mL | first compound 0.002 µg/mL | first compound 0.0039 µg/mL | first compound 0.2 µg/mL | first compound 0.4 µg/mL | first compound 0.8 µg/mL
[1], partner 0.25 µg/mL | 0.969 | 0.896 | 0.836 | – | – | –
[1], partner 0.5 µg/mL | 0.991 | 0.91 | 0.838 | – | – | –
[1], partner 1 µg/mL | 0.921 | 0.919 | 0.868 | – | – | –
[2], partner 0.125 µg/mL | – | – | – | 0.874 | 0.758 | 0.316
[2], partner 0.25 µg/mL | – | – | – | 0.91 | 0.782 | 0.354
[2], partner 0.5 µg/mL | – | – | – | 0.903 | 0.8 | 0.369

Conditions | fitness
[1], first compound 0.0312 µg/mL, partner 0.125 µg/mL | 0.0416
[1], first compound 0.0312 µg/mL, partner 0.25 µg/mL | 0.0347
[1], first compound 0.0312 µg/mL, partner 0.5 µg/mL | 0.036
[1], first compound 0.0625 µg/mL, partner 0.125 µg/mL | 0.0518
[1], first compound 0.0625 µg/mL, partner 0.25 µg/mL | 0.037
[1], first compound 0.0625 µg/mL, partner 0.5 µg/mL | 0.043
[1], first compound 0.125 µg/mL, partner 0.125 µg/mL | 0.0423
[1], first compound 0.125 µg/mL, partner 0.25 µg/mL | 0.0386
[1], first compound 0.125 µg/mL, partner 0.5 µg/mL | 0.0448
[2], first compound 0.1725 µg/mL, partner 2 µg/mL | 0.176
[2], first compound 0.1725 µg/mL, partner 4 µg/mL | 0.0529
[2], first compound 0.345 µg/mL, partner 2 µg/mL | 0.103
[2], first compound 0.345 µg/mL, partner 4 µg/mL | 0.001
[2], first compound 0.69 µg/mL, partner 1 µg/mL | 0.235
[2], first compound 0.69 µg/mL, partner 2 µg/mL | 0.0462
[2], first compound 0.69 µg/mL, partner 4 µg/mL | 0.022

C[C@H]1COc2c(N3CCN(C)CC3)c(F)cc3c(=O)c(C(=O)O)cn1c23 [Levofloxacin] + CO[C@@]12[C@H](COC(N)=O)C3=C(C(=O)C(C)=C(N)C3=O)N1C[C@@H]1N[C@@H]12 [Mitomycin C]
fitness, [2]
Conditions | first compound 0.1725 µg/mL | first compound 0.2 µg/mL | first compound 0.345 µg/mL | first compound 0.4 µg/mL | first compound 0.69 µg/mL | first compound 0.8 µg/mL
partner 0.001075 µg/mL | – | 0.883 | – | 0.777 | – | 0.422
partner 0.002 µg/mL | 0.817 | – | 0.699 | – | 0.404 | –
partner 0.00215 µg/mL | – | 0.871 | – | 0.769 | – | 0.362
partner 0.004 µg/mL | 0.782 | – | 0.687 | – | 0.355 | –
partner 0.0043 µg/mL | – | 0.78 | – | 0.699 | – | 0.331
partner 0.008 µg/mL | 0.694 | – | 0.595 | – | 0.387 | –

CN(C)C(=O)C(CCN1CCC(O)(c2ccc(Cl)cc2)CC1)(c1ccccc1)c1ccccc1 [Loperamide] + CC(=O)NC[C@H]1CN(c2ccc(N3CCOCC3)c(F)c2)C(=O)O1 [Linezolid]
one replicate
Conditions | fitness
[1], first compound 25 µg/mL, partner 0.0625 µg/mL | 0.584
[1], first compound 50 µg/mL, partner 0.0625 µg/mL | 0.0437
[1], first compound 100 µg/mL, partner 0.0625 µg/mL | 0.0474
[2], first compound 68.57 µg/mL, partner 0.2 µg/mL | 0.91
[2], first compound 68.57 µg/mL, partner 0.4 µg/mL | 0.884
[2], first compound 68.57 µg/mL, partner 0.8 µg/mL | 0.532

Conditions | fitness
[1], first compound 25 µg/mL, partner 0.125 µg/mL | 0.607
[1], first compound 25 µg/mL, partner 0.25 µg/mL | 0.066
[1], first compound 25 µg/mL, partner 0.5 µg/mL | 0.0361
[1], first compound 50 µg/mL, partner 0.25 µg/mL | 0.0362
[1], first compound 50 µg/mL, partner 0.5 µg/mL | 0.0318
[1], first compound 100 µg/mL, partner 0.125 µg/mL | 0.0357
[1], first compound 100 µg/mL, partner 0.25 µg/mL | 0.0269
[1], first compound 100 µg/mL, partner 0.5 µg/mL | 0.0353
[2], first compound 17.14 µg/mL, partner 0.2 µg/mL | 0.815
[2], first compound 17.14 µg/mL, partner 0.4 µg/mL | 0.709
[2], first compound 17.14 µg/mL, partner 0.8 µg/mL | 0.414
[2], first compound 20 µg/mL, partner 0.105 µg/mL | 0.938
[2], first compound 20 µg/mL, partner 0.21 µg/mL | 0.839
[2], first compound 20 µg/mL, partner 0.42 µg/mL | 0.652
[2], first compound 34.28 µg/mL, partner 0.2 µg/mL | 0.806
[2], first compound 34.28 µg/mL, partner 0.4 µg/mL | 0.701
[2], first compound 34.28 µg/mL, partner 0.8 µg/mL | 0.367
[2], first compound 40 µg/mL, partner 0.105 µg/mL | 0.947
[2], first compound 40 µg/mL, partner 0.21 µg/mL | 0.843
[2], first compound 40 µg/mL, partner 0.42 µg/mL | 0.58
[2], first compound 80 µg/mL, partner 0.42 µg/mL | 0.179

CN(C)C(=O)C(CCN1CCC(O)(c2ccc(Cl)cc2)CC1)(c1ccccc1)c1ccccc1 [Loperamide] + CO[C@@]12[C@H](COC(N)=O)C3=C(C(=O)C(C)=C(N)C3=O)N1C[C@@H]1N[C@@H]12 [Mitomycin C]
[2]
Conditions | fitness
first compound 17.14 µg/mL, partner 0.002 µg/mL | 0.871
first compound 17.14 µg/mL, partner 0.004 µg/mL | 0.796
first compound 17.14 µg/mL, partner 0.008 µg/mL | 0.662
first compound 20 µg/mL, partner 0.001075 µg/mL | ≥ 1
first compound 20 µg/mL, partner 0.00215 µg/mL | ≥ 1
first compound 20 µg/mL, partner 0.0043 µg/mL | 0.926
first compound 34.28 µg/mL, partner 0.002 µg/mL | 0.843
first compound 34.28 µg/mL, partner 0.004 µg/mL | 0.8
first compound 34.28 µg/mL, partner 0.008 µg/mL | 0.616
first compound 40 µg/mL, partner 0.001075 µg/mL | ≥ 1
first compound 40 µg/mL, partner 0.00215 µg/mL | ≥ 1
first compound 40 µg/mL, partner 0.0043 µg/mL | 0.953
first compound 80 µg/mL, partner 0.001075 µg/mL | 0.804
first compound 80 µg/mL, partner 0.00215 µg/mL | 0.801

[2], first compound 68.57 µg/mL, one replicate
Conditions | fitness
partner 0.002 µg/mL | 0.814
partner 0.004 µg/mL | 0.712
partner 0.008 µg/mL | 0.672
